This is an account of results in patent US20250155452A1, “NLRP3 Variants & Library Screen for NLRP3 Inhibitors with the Same” (BioAge Labs, Inc., priority 2023, published 2025).

For the assay, the target named is T1, MBP-ANLRP3-HIS (Homo sapiens, UniProt Q96P20, K142A).
T1 construct: made in house; host or cells: Sf21 (IPLB-Sf21-AE) insect cells
Description: ATPase activity, ADP-Glo Kinase Assay (Promega). It counts as biochemical. The conditions noted are these: read-out: Km of ATP. As for the experimental part: Peptide mass fingerprinting confirmed the protein identity while intact mass analysis confirmed the overall integrity of the protein and indicated the loss of the amino-terminal methionine. The theoretical molecular weight and isoelectric point (pI) of MBP-NLRP3-HIS are 145.30 kDa and 6.2, respectively. […] MBP-ANLRP3-HIS protein functionality was assessed based on ATPase activity using an ADP-Glo Kinase Assay (Promega). […] This protein construct was shown via its ATPase activity to have acceptable stability up to 2 hours in conditions mimicking one round of selection in the DEL screen.

One may read the Km as the substrate concentration at which the rate is half of its maximum. For `Nc1ncnc2c1ncn2[C@@H]1O[C@H](COP(=O)(O)OP(=O)(O)OP(=O)(O)O)[C@@H](O)[C@H]1O` [ATP], the Km came out at 3.08 µM.
